The results in this text go back to patent US10035778B2, “Meta-azacyclic amino benzoic acid derivatives as pan integrin antagonists” (Saint Louis University, priority 2015, dated 2018).

What all share (type): binding
For assay [1], the target named is Recombinant human integrin αvβ3 (Homo sapiens (Human), UniProt P05106+P06756). Briefly: Solid Phase Receptor Assay (SPRA) for αvβ3 function. Conditions: vitronectin-coated plate. Here is the method:
3. Solid Phase Receptor Assay (SPRA) for αvβ3 Function
Recombinant human vitronectin (R& D Systems, 2308-VN) diluted to 1 μg/mL in TBS+ buffer (25 mM Tris pH 7.4, 137 mM NaCl, 2.7 mM KCl, 1 mM CaCl2, 1 mM MgCl2, 1 mM MnCl2) was added to wells (50 μL/well) of a 96-well half-well transparent microtiter plate (Greiner 675061) and incubated overnight at 4° C. Wells were washed 3 times with 150 μL TBS+ and 150 μL of blocking buffer (TBS+ with 1% bovine serum albumin, Sigma A7906) were added. The plate was incubated for 1 hr at 37° C. and then washed 3× with TBS+ buffer. Recombinant human integrin αvβ3 (R&D Systems, 3050-AV) was diluted to 1 μg/mL in TBS+/0.1% bovine serum albumin. Compounds were diluted 1:100 into the integrin solution and then 50 μL added to empty wells of the washed vitronectin-coated plate according to a standard template with each sample repeated in triplicate. After incubation for two hours at room temperature, the plate was washed 3× with 150 μL of TBS+ buffer. To each well, 50 μL of biotinylated anti-αv antibody (R&D Systems, BAF1219) at 0.5 μg/mL in TBS+/0.1% BSA were added and the plate covered and incubated for 1 hr at room temperature. After washing the plate 3× with 150 μL of TBS+ buffer, 50 μL of streptavidin-conjugated horseradish peroxidase (R&D Systems, DY998) diluted in TBS+ blocking buffer were added to the wells and the plate incubated for 20 min at room temperature. The plate was washed 3× with TBS+ buffer followed by 50 μL of TMB substrate (Sigma, T4444) added to each well and the plate was incubated for 20 min at room temperature. Plates were read by colorimetric detection at 650 nm wavelength using a Tecan Safire II plate reader. Concentration-response curves were constructed by non-linear regression (best fit) analysis, and IC50 values were calculated for each compound.

Assay [2] has as its target Recombinant human integrin αvβ8 (Homo sapiens (Human), UniProt P06756+P26012). The assay is described as follows: Solid Phase Receptor Assay (SPRA) for αvβ8 function. The note with it: LAP-coated plate. The method, then:
6. Solid Phase Receptor Assay (SPRA) for αvβ8 Function
Recombinant human LAP protein (R&D Systems, Inc, 246-LP) diluted to 0.5 μg/mL in TBS+ buffer (25 mM Tris pH 7.4, 137 mM NaCl, 2.7 mM KCl, 1 mM CaCl2, 1 mM MgCl2, 1 mM MnCl2) was added to wells (50 μl/well) of a 96-well half-well transparent microtiter plate (Greiner 675061), and incubated overnight at 4° C. Wells were washed 3 times with 150 μL TBS+ and 150 μL of blocking buffer (TBS+ with 1% bovine serum albumin, Sigma A7906) were added. The plate was incubated for 1 hr at 37° C. and then washed 3× with TBS+. Recombinant human integrin αvβ8 (R&D Systems, 4135-AV) was diluted to 0.1 μg/mL in TBS+/0.1% bovine serum albumin. Compounds were diluted 1:100 into the integrin solution and 50 μL added to empty wells of the washed LAP-coated plate according to a standard template with each sample repeated in triplicate. After incubation for two hours at room temperature, the plate was washed 3× with 150 μL of TBS+. To each well, 50 μL of biotinylated anti-αv antibody (R&D Systems, BAF1219) at 1 μg/mL in TBS+/0.1% BSA were added and the plate was covered and incubated for 1 hr at room temperature. After washing the plate 3× with 150 μL of TBS+ buffer, 50 μL of streptavidin-conjugated horseradish peroxidase (R&D Systems, DY998) diluted in TBS+ blocking buffer were added to the wells and the plate incubated for 20 min at room temperature. The plate was washed 3× with TBS+ followed by 50 μL of TMB substrate (Sigma T4444) added to each well and the plate incubated for 20 min at room temperature. Plates were read by colorimetric detection at 650 nm wavelength using a Tecan Safire II plate reader. Concentration-response curves were constructed by non-linear regression (best fit) analysis, and IC50 values were calculated for each compound.

Assay [3] has as its target Recombinant human integrin α5β1 (Homo sapiens (Human), UniProt P05556+P08648). The assay is described as follows: Solid Phase Receptor Assay (SPRA) for α5β1 function. The note with it: fibronectin-coated plate. Here is the method: 1. Solid Phase Receptor Assay (SPRA) for α5β1 Function
Purified human fibronectin (R&D Systems, 1918-FN) diluted to 2 μg/mL in TBS+ buffer (25 mM Tris pH 7.4, 137 mM NaCl, 2.7 mM KCl, 1 mM CaCl2, 1 mM MgCl2, 1 mM MnCl2) was added to wells (50 μL/well) of a 96-well half-well transparent microtiter plate (Greiner 675061) and incubated overnight at 4° C. Wells were washed 3 times with 150 μL TBS+ and 150 μL of blocking buffer (TBS+ with 1% bovine serum albumin, Sigma A7906) were added. The plate was incubated for 1 hr at 37° C. and then washed 3× with TBS+ buffer. Recombinant human integrin α5β1 (R&D Systems, 3230-A5) was diluted to 0.1 μg/mL in TBS+/0.1% bovine serum albumin. Compounds were diluted 1:100 into the integrin solution and then 50 μL added to empty wells of the washed fibronectin-coated plate according to a standard template with each sample repeated in triplicate. After incubation for two hours at room temperature, the plate was washed 3× with 150 μL of TBS+ buffer. To each well, 50 μl of biotinylated anti-α5 antibody (R&D Systems, BAF1864) at 0.5 μg/mL in TBS+/0.1% BSA were added and the plate covered and incubated for 1 hr at room temperature. After washing the plate 3× with 150 μL of TBS+ buffer, 50 μL of streptavidin-conjugated horseradish peroxidase (R&D Systems, DY998) diluted in TBS+ blocking buffer were added to the wells and the plate incubated for 20 min at room temperature. The plate was washed 3× with TBS+ buffer followed by 50 μL of room temperature TMB substrate (Sigma, T444) added to each well and the plate incubated for 20 min at room temperature. Plates were read by colorimetric detection at 650 nm wavelength using a Tecan Safire II plate reader. Concentration-response curves were constructed by non-linear regression (best fit) analysis, and IC50 values were calculated for each compound.

Sequence of Recombinant human integrin αvβ8 (P06756 31-992): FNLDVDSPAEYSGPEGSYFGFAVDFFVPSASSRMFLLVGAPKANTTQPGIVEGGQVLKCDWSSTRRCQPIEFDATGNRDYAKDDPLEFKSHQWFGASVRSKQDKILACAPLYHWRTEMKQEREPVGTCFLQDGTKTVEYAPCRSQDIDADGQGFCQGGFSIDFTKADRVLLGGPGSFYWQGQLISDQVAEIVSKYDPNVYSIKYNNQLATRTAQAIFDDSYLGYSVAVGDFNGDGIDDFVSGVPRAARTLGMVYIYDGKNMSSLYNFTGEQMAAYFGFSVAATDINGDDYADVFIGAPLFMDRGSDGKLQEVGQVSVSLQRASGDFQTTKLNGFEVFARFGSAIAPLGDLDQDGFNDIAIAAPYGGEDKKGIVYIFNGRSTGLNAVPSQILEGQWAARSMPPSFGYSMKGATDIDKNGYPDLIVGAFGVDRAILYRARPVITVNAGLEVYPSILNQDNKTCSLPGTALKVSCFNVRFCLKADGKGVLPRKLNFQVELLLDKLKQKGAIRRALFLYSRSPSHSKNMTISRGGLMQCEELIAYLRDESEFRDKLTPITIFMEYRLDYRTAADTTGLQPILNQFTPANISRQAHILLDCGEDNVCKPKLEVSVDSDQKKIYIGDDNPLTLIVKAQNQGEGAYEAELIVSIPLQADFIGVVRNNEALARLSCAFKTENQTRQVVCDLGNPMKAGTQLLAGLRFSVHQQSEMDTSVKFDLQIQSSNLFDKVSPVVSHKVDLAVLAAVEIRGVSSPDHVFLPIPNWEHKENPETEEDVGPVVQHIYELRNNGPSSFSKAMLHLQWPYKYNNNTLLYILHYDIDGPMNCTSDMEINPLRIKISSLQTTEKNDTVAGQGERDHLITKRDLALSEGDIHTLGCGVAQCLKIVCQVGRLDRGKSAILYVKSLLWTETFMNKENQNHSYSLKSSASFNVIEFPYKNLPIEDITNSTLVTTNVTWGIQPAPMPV
Sequence of Recombinant human integrin αvβ8 (P26012 43-684): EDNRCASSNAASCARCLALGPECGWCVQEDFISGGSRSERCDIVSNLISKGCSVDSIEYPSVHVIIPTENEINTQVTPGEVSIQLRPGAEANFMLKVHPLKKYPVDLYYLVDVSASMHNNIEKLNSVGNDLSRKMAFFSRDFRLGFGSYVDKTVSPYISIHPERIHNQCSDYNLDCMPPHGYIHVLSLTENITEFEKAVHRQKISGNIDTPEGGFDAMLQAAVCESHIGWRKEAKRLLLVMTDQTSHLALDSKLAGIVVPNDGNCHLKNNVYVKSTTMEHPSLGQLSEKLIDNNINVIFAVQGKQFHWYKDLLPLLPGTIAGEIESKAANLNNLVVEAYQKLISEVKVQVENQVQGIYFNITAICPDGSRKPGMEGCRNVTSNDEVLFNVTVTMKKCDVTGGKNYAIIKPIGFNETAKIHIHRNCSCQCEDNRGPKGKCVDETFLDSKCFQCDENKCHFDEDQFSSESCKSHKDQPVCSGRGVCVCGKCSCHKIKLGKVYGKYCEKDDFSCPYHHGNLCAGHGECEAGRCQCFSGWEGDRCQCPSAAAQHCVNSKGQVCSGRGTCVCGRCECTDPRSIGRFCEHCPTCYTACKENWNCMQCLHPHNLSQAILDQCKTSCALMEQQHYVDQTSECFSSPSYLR
Sequence of Recombinant human integrin αvβ3 (P06756 31-992): as the sequence (P06756 31-992) above
Sequence of Recombinant human integrin αvβ3 (P05106 27-718): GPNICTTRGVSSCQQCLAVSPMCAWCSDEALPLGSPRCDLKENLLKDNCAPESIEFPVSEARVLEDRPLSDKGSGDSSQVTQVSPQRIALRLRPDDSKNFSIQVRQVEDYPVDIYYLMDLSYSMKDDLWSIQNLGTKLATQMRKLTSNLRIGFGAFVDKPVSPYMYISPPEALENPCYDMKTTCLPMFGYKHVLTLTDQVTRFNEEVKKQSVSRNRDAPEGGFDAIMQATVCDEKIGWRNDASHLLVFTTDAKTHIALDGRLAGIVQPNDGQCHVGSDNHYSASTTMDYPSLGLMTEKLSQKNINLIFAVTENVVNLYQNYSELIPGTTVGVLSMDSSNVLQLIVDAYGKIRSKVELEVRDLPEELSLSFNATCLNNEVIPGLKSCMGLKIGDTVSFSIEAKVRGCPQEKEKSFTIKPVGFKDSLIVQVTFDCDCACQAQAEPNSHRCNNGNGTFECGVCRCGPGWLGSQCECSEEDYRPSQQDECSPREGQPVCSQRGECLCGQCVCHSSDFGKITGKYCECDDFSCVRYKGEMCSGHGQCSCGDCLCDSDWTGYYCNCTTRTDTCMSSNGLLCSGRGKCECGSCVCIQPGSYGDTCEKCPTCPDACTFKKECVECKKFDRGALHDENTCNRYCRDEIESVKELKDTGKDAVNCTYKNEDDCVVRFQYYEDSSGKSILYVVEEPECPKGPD
Sequence of Recombinant human integrin α5β1 (P08648 42-995): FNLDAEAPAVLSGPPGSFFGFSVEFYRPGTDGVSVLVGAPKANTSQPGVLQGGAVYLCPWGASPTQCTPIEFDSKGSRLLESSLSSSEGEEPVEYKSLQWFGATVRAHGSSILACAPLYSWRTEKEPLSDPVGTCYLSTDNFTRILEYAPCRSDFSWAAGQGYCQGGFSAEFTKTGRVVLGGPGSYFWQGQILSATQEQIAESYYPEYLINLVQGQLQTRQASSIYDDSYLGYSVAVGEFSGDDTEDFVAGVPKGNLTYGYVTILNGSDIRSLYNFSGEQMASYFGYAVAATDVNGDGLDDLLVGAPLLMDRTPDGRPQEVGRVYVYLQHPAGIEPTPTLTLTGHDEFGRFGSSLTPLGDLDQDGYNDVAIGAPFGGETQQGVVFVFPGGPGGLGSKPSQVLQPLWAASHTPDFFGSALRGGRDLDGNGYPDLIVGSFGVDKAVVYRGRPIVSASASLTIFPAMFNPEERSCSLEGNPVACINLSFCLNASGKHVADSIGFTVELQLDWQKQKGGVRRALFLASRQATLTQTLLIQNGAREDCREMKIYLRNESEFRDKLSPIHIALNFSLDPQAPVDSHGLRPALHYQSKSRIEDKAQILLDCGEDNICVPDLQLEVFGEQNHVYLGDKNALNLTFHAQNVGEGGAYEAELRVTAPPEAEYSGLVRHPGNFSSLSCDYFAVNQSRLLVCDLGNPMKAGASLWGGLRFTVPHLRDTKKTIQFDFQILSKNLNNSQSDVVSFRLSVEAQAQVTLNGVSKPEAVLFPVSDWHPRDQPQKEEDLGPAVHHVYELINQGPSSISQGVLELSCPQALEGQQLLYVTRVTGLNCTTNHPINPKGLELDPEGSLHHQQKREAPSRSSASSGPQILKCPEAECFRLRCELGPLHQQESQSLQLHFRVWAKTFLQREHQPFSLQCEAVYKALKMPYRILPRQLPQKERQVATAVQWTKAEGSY
Sequence of Recombinant human integrin α5β1 (P05556 21-728): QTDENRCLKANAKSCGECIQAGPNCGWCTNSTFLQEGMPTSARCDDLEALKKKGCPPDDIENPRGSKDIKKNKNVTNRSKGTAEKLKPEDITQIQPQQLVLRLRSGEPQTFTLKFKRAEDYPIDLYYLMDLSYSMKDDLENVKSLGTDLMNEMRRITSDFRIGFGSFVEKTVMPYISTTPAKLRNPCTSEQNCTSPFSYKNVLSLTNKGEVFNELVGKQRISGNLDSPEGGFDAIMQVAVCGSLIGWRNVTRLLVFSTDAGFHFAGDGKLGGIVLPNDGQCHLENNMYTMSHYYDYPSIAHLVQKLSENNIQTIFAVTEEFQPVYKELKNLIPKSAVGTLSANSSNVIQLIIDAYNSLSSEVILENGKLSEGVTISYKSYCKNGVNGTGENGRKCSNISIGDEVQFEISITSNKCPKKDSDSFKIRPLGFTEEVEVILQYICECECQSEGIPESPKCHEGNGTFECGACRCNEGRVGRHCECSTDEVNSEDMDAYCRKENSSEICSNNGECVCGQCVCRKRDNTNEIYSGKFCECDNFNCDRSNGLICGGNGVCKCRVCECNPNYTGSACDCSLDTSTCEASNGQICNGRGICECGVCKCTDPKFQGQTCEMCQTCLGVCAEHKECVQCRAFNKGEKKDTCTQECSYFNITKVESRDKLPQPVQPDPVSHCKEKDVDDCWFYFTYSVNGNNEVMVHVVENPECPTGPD

The IC50 is the midpoint of a concentration-inhibition curve. Turning to `O=C(O)C[C@H](NC(=O)CNC(=O)c1cc(O)cc(NC2=NCC(O)CN2)c1)c1cc(Br)cc(C(F)(F)F)c1` (stereo partly drawn) [Example 2, (3S)-3-(3-bromo-5-(trifluoromethyl)phenyl)-3-(2-(3-hydroxy-5-((5-hydroxy-1,4,5,6-tetrahydropyrimidin-2-yl)amino)benzamido)acetamido)propanoic acid], the IC50 in assay [1] turned out to be 2.7 ± 0.4 nM; in assay [2] it was 0.5 nM; in assay [3], 0.8 nM.
The like results for `O=C(O)C[C@H](NC(=O)CNC(=O)c1cncc(NC2=NCC(O)CN2)c1)c1cc(Br)cc(Br)c1` (stereo partly drawn) [Example 14, (3S)-3-(3,5-dibromophenyl)-3-[[2-[[5-[(5-hydroxy-1,4,5,6-tetrahydropyrimidin-2-yl)amino]pyridine-3-carbonyl]amino]acetyl]amino]propanoic acid] were, in that order, 0.3 nM, 0.2 nM and 0.6 nM.
As to `O=C(O)CC(NC(=O)CNC(=O)c1cc(O)cc(NC2=NCC(O)CN2)c1)c1cc(Br)cc(Br)c1O` (stereo not drawn) [Example C7, reference compound], the results for the IC50 in assay [1], in assay [2] and in assay [3] were 11 nM, 7 nM and 59 nM, respectively.
The like results for `Cc1cc(Cl)cc([C@H](CC(=O)O)NC(=O)CNC(=O)c2cc(O)cc(NC3=NCC(O)CN3)c2)c1` (stereo partly drawn) [Example 12, (3S)-3-[3-chloro-5-methyl-phenyl)-3-(2-(3-hydroxy-5-((5-hydroxy-1,4,5,6-tetrahydropyrimidin-2-yl)amino)benzamido)acetamido)propanoic acid] were, in that order, 4 nM, 0.7 ± 0.1 nM and 2 nM.
In the case of `O=C(O)C[C@H](NC(=O)CNC(=O)c1cncc(NC2=NCC(O)CN2)c1)c1cc(Br)cc(C(F)(F)F)c1` (stereo partly drawn) [Example 9, (3S)-3-[3-bromo-5-(trifluoromethyl)phenyl]-3-[[2-[[5-[(5-hydroxy-1,4,5,6-tetrahydropyrimidin-2-yl)amino]pyridine-3-carbonyl]amino]acetyl]amino]propanoic acid], the half-inhibitory concentration (IC50) in assay [1] turned out to be 3 nM; in assay [2] it was 0.3 nM; in assay [3] it was 0.3 nM.
For the molecule `O=C(O)C[C@H](NC(=O)CNC(=O)c1cc(O)cc(NC2=NCC(O)CN2)c1)c1cc(Cl)cc(Br)c1O` (stereo partly drawn) [Example C1, reference compound], the IC50 in assay [1] amounted to 5 ± 2 nM; in assay [2], 3 ± 2 nM; in assay [3] it was 16 ± 9 nM.
Consider `N=C(N)Nc1cccc(C(=O)NCC(=O)NC(CC(=O)O)c2cc(F)cc(C(F)(F)F)c2)c1` (stereo not drawn) [Example C9, reference compound], for which the IC50 in assay [1] was 4 ± 1 nM; in assay [2], 6 ± 3 nM; in assay [3], 8 ± 3 nM.
The like results for `O=C(O)C[C@H](NC(=O)CNC(=O)c1cc(O)cc(NC2=NCC(O)CN2)c1)c1ccccc1` (stereo partly drawn) [Example C2, reference compound] were, in that order, 3 nM, 5 nM and 8 nM.
The like results for `O=C(O)C[C@H](NC(=O)CNC(=O)c1cc(O)cc(NC2=NCC(O)CN2)c1)c1cc(Cl)cc(Cl)c1` (stereo partly drawn) [Example 15, (3S)-3-[3,5-dichloro-phenyl)-3-(2-(3-hydroxy-5-((5-hydroxy-1,4,5,6-tetrahydropyrimidin-2-yl)amino)benzamido)acetamido)propanoic acid] were, in that order, 4 nM, 1.1 ± 0.3 nM and 1 ± 0.3 nM.
For `Cc1cc(Cl)cc([C@@H](CC(=O)O)NC(=O)CNC(=O)c2cc(O)cc(NC3=NCC(O)CN3)c2)c1O` (stereo partly drawn) [Example C10, reference compound], the IC50 worked out at 6 nM in assay [1], 5 nM in assay [2] and 18 nM in assay [3].
In the case of `O=C(O)C[C@H](NC(=O)CNC(=O)c1cc(O)cc(NC2=NCC(O)CN2)c1)c1cc(C(F)(F)F)cc(C(F)(F)F)c1` (stereo partly drawn) [Example 10, (3S)-3-[3,5-bis(trifluoromethyl)phenyl)-3-(2-(3-hydroxy-5-((5-hydroxy-1,4,5,6-tetrahydropyrimidin-2-yl)amino)benzamido)acetamido]propanoic acid], the IC50 in assay [1] came to 4 nM; in assay [2], 0.3 ± 0.1 nM; in assay [3], 1 ± 0.4 nM.
For `Cc1cc(C)cc(C(CC(=O)O)NC(=O)CNC(=O)c2cccc(NC(=N)N)c2)c1` (stereo not drawn) [Example C4, reference compound], in that order: 4 nM, 6 nM and 7 nM.
